Measured values published in US10106777B2, “Directed differentiation and maturation of pluripotent cells into hepatocyte like cells by modulation of Wnt-signalling pathway” (Takara Bio Europe AB, priority 2010, dated 2018).

Legend:
hESC-HEP [1] = assay: Hepatic marker expression in hESC-HEP, GSK-3 inhibitors at later stage (from day 10); format: cell-based, human; settings: GSK-3 inhibitor from day 10, compared to BIO
From the text: FIGS. 12A and B. Relative expression levels of hepatic markers in hESC-HEP generated with modulation of Wnt-signalling by GSK-3 inhibitors other than BIO during later maturation period (day 10 onwards). Treatments shown include: hESC-HEP (negative control; cells never exposed to GSK-inhibitor during differentiation), BIO, SB216763, Kenpaullone, Indirubin-3-O; also included is a second negative control undifferentiated hESC cells (hESC). […] GSK-3 inhibitors were present only during later differentiation (from day 10 onwards); also included is a further negative control graph showing the expression levels of a housekeeping gene (Creb) across the various samples.
Furthermore, differentiating cells were exposed to GSK-3 inhibitors only during later (from day 10) stages of differentiation. Three alternative GSK-3 inhibitors were tested alongside BIO to determine effectiveness in inducing hepatic marker expression (SB216763, Kenpaullone and Indirubin-3-O) and results were compiled both for Phase I and Phase II enzymes and hepatic markers, with two negative controls (hESC-HEP not exposed to GSK-3 inhibition during differentiation, and undifferentiated hESC cells). […]

hESC-HEP [2] = assay: Hepatic marker expression in hESC-HEP, GSK-3 inhibitors at mid and late stage; format: cell-based, human; settings: Kenpaullone 0.23 μM days 3-9, 2.5 μM days 10-23, compared to BIO
From the text: FIGS. 13A and B. Relative expression levels of hepatic markers in hESC-HEP generated with modulation of Wnt-signalling by GSK-3 inhibitors other than BIO during both mid (days 3-9) and late stage (days 10-23) differentiation. Treatments shown include: hESC-HEP (negative control; cells never exposed to GSK-inhibitors), BIO, SB216763, Kenpaullone, Indirubin-3-O; also included is a second negative control undifferentiated hESC cells (hESC); also included is a further negative control graph showing the expression levels of a housekeeping gene (Creb) across the various samples.
Differentiating cells were exposed to GSK-3 inhibitors during both mid (days 3-9) and late (from day 10-23) stages of differentiation. Three alternative GSK-3 inhibitors were tested alongside BIO to determine effectiveness in inducing hepatic marker expression (SB216763, Kenpaullone and Indirubin-3-O) and results were compiled both for Phase I enzymes and Phase II enzymes and hepatic markers, with two negative controls (hESC-HEP not exposed to GSK-3 inhibition during differentiation, and undifferentiated hESC cells). During days 3-9 of differentiation, concentrations of GSK-3 inhibitors used were as follows: BIO 3.5 μM, SB216763 34 nM, Kenpaullone 0.23 μM and Indirubin-3-O 22 nM. […]

[3] = tested on: hESC-HEP cultures (cell line SA002); assay: Functional CYP1A activity in hESC-HEP cultures with NaB together with BIO; format: cell-based, human; settings: NaB 1 mM together with BIO 1.4 μM at day 21-25, vs parallel cultures without NaB
Method: FIG. 9. […] Analysis is performed day 24-25, n=1.
Cell line SA002 from mEF cultures was used as starting material.

[4] = tested on: feeder free cultured hPS cells; assay: Hepatic gene marker expression in hepatocyte-like cells from feeder free hESC; format: cell-based, human; settings: with vs without GSK3 inhibitor
Method: The split media (SM) gave the same levels as without split media. Two controls were used undifferentiated cells cultured feeder free (UD feeder free) and a perpetual cell line from a hepatocellular carcinoma (HepG2). The levels of AFP, KRT18 (Keratin 18) and KRT19 (Keratin 19) indicate that the cells are maintained in a stage where they still have the ability to proliferate. The cells were 23 days when they were analyzed, n=3.

Beta-catenin = assay: Immunolocalisation of Beta-catenin in hES-HEP; format: cell-based, human
From the text: C) Immunolocalisation of Beta-catenin and Dapi staining of hES-HEP-BIO (A) and hES-HEP+BIO (B) Beta-catenin is localized at the cell membrane in hES-HEP cultures not treated and treated with BIO. […] Day 21, 20×

[5] = tested on: hESC derived hepatocytes (hESC-HEP); assay: Morphological observation of purity and homogeneity of hESC-HEP cultures; format: cell-based, human
Method: FIGS. 8A-E. Differentiation of hESC derived hepatocytes in the presence of GSK3 inhibitor from day 3 purifies hepatocytes from other cell types.
A-C show hESC-HEP at day 17, differentiated by protocol i or ii according to FIG. 2. D-E show hESC-HEP at day 15, differentiated by protocol iii or vi according to FIG. 2,
B) 1 μM BIO day 3-9, protocol ii.
C) 5 μM BIO day 3-9, protocol ii.
D) 0 μM BIO day 3-9, 1.5 μM BIO day 10-15 protocol iii,
E) 3.5 μM BIO day 3-9, 1.5 μM BIO day 10-15 protocol vi.
A and B show hESC-HEP cultures which are over grown by another cell type where as in C the majority of cells in the culture are hepatocyte-like cells. E represent a purer hESC-HEP culture than D. White arrow: hepatocyte-like cells, black arrow: other cell type than hepatocyte-like cells. Scale bar: 100 μm.
(§1) Thus it appears advantageous to add GSK-3 inhibitors at a later stage of differentiation to avoid massive cell death seen when it is added at day 3. […] In addition, GSK3 inhibitors at this stage may contribute/stimulate to hepatic induction of the competent endoderm.

MEF cultured hESC = assay: Cell death on addition of BIO at day 3 of differentiation; format: cell-based, human
Method: as §1

[6] = tested on: UDP-glucuronyltransferases (UGTs); assay: UGT metabolic activity in hESC-HEP from feeder-free hESC; format: cell-based, human
From the text: FIG. 11. Relative expression levels of UGT hepatic metabolic markers in hESC-HEP generated with or without Wnt-signalling modulation by GSK-3 inhibitor BIO during endoderm to hepatocyte-like cell phase. FC=fold change relative expression, control set […] to 1 for each example. Graphs show expression levels in cells treated with one of three differentiation/maturation protocols (see example 21) and +/−GSK-3 inhibitor treatment for activity of UGTs on specific UGT substrates: (UGT1A1,[8-estradiol]); (UGT2B, [8-estradiol]; (UGT1A6, [1-Napthol]), (UGT1A9, [Propofol]), (UGT2B7, [Naloxone]). A non-specific control (Methylumbelliferone) was also included. n=number of experiments averaged to obtain results.
Metabolic activity of hESC-HEP derived from hESCs cultured in feeder-free conditions (see Examples 12-14) was measured to determine the effect of GSK-3 inhibition during development and maturation by examining the activity of several UDP-glucuronyltransferases (UGTs) (enzymes that participate in the metabolism of many drugs). Activity of these UGTs was tested via several substrates, namely: β-estradiol (UGT1A1, 3-glucuronide), 1-naphthol (UGT1A6), propofol (UGT1A9), and naloxone (UGT2B7). A non-specific control (Methylumbelliferone) was also included (see FIGS. 12A-B). hESC-HEPs were differentiated essentially according to Example 12, up to day 7. […]

[7] = tested on: hESC derived hepatocytes (hESC-HEP)
Method: Analysis are performed at day 16-18 (n=7-8), 20-21 (n=5) and 25 (n=2) respectively, mean±SD.
MEF-cultured hESCs (hES cells cultured on feeder cells) were differentiated into hepatocyte-like cells according to examples 4, 8 and 9, thus comparing the absence of BIO, a GSK3-inhibitor (Example 4), to the influence of BIO during the maturation step (day 10-26) in maturation medium I and II (MM I and MM II)(Example 8 and 9 respectively). Before adding the first medium, ID day 0-2, the cultures were washed thoroughly with PBS, twice. The different mediums were prepared freshly and added day 0 (DE day 0-1), 2 (DE day 2-4), 4 and 7-10 every other to third day (VH1), 10-26 every second or third day (MMI or MM II). […] Cells were counted in a Bürker chamber and seeded out in 0.1% gelatine coated culture units (e.g. in 24-well plates) at a cell density of 150 to 250K cells per cm^2.
At day 16, 18, 20, 21 and 25 hESC-HEP cultures were analyzed for cytochrome P450 1A activity by incubating the substrate Phenacetine to a final concentration of 26 μM in Phenol Red-free Williams Medium E, supplemented with 0.1% Penicilline-Streptomycin 2 mM L-Glutamine and 25 mM Hepes. […] Samples were analysed by Liquid chromatography-mass spectrometry (LC-MS) LCMS for presence of the metabolite Paracetamol, biotransformed by the cytochrome p450 enzymes Cyp1A2, 1A1.

[8] = tested on: feeder free cultured hPS cells
Method: Feeder free cultured hPS cells with and without the GSK3 inhibitor, as well as an alternative method where a split media as described in FIG. 3C were compared for their hepatic profile and homogeneity.
A) Results from Activity assay of CYP1A and CYP3A measured by conversion of paracetamol and OH_midazolam respectively.
hESCs cultured under feeder free conditions were incubated in media supplemented with Activin A. The cells were then induced into hepatocytes by differentiating them to hepatic progenitor cells and then to more mature hepatocyte like cells. Cells cultured with and without the GSK3 inhibitor were compared for their hepatic profile and homogeneity.

hiPS cells [9] = tested on: hiPS cells
Method: FIGS. 5A and B. hiPS cells cultured with and without the GSK3 inhibitor were compared for their hepatic profile and homogeneity. Where a GSK3 inhibitor was added it was added at a later stage of the differentiation, according to FIG. 3. Derivation of hepatocytes from human induced pluripotent stem cells (hiPS).
The cells were 30 days, n=8. hiPS vs hiPS+BIO.
The undifferentiated hiPS cells were cultured in Activin A supplemented media to stimulate initial differentiation into partly differentiated cells. The hiPS derived partly differentiated cells were then passaged (to plates coated with 0.1% Gelatin or Matrigel 0.016 mM) and induced to hepatic progenitor cells and then to hepatocyte like cells in media with and without BIO supplementation, see FIG. 3 A)-B).
The hiPS cells were cultured on mEFs until they were confluent. The cells were washed twice in PBS+/+ and treated with Activin A containing medium (See FIG. 3 a-b). The cells adapted an endoderm like morphology around day 3. When the majority of the cells were partly differentiated, the cells were exposed to media supplemented with factors inducing the cells into hepatocyte-like cells (See FIG. 3A)-B)) plus or minus BIO.

hiPS cells [10] = tested on: hiPS cells; remark: listed apart in the source
hES cells [11] = tested on: hES cells
Method: FIGS. 6A and B. hES cells cultured with and without the GSK3 inhibitor were compared for their hepatic profile and homogeneity, as described in examples 12 and 13. Where a GSK3 inhibitor was added it was added at a later stage of the differentiation, according to FIG. 3B.
A) Results from Activity Assay of CYP1A, 3A and 2C. […] The cells were 30 days, n=8. hPS vs hPS+BIO.B)

hES cells [12] = tested on: hES cells; remark: listed apart in the source
Method: Where a GSK3 inhibitor was added it was added at a later stage of the differentiation, according to FIG. 3B.
B) Results of hepatic markers from Q-PCR of the same cells that were analysed by Activity assay (Q-PCR hPS+/−BIO) n=4.

[13] = tested on: hESC-HEP (cell-line SA002)
Method: Qrt-PCR data is presented as fold change gene expression levels of HepG2 except for BSEP, which graph show fold change of calibrator. N=2-3, mean±SEM.
hESC-HEP were derived from cell-line SA002 cultures on mEF-layer according to Example 9, FIG. 2, protocol iii (absence of BIO between day 3-10) or Example 11, FIG. 2, protocol iv (presence of 3.5 μM BIO between day 3-10). Total RNA was collected and isolated from the two hES-HEP cultures at day 21, 24, 26 and 28 by using RNA isolation kit from Qiagene. Quantitative reverse transcriptase PCR, QrtPCR, by using Taqman probes, was performed for the following hepatic marker genes: phase I drug metabolizing enzymes; CYP (cytochrome P450) 3A4, 3A5, 3A7, 2C9, phase II drug metabolizing enzymes GSTA1 (glutation-S-transferas A1), UGT2B7 (UDP glucuronosyltransferase 2B7), phase III, transporters; MRP2 (multi-drug residence protein 2), BSEP (bile salt export pump), and general hepatic markers; A1AT (alpha-1 antitrypsin), ALB (albumin) and TAT (tyrosine-amino transferas). All data was normalised to the house-keeping gene CREB. RNA from HepG2 cultures was included and data is presented as fold change of HepG2. […] Thus, BSEP expression is instead presented as fold change of a so called calibrator which contains RNA from different sources.

With O=C1Cc2c([nH]c3ccc(Br)cc23)-c2ccccc2N1 [Kenpaullone, 9-Bromo-7,12-dihydro-indolo[3,2-d][1]benzazepin-6(5H)-one] as the compound, how does the “expression of most of the Phase I enzymes and hepatic markers” value (hESC-HEP [1]) read?
Its value is “higher levels of expression than BIO”.

And the “expression of most of the Phase I enzymes” value (hESC-HEP [2])?
Its value is “higher levels of expression than BIO”.

CCCC(=O)[O-].[Na+] [NaB, Sodium Butyrate] was tested. Which CYP1A activity [3] did it give?
The CYP1A activity was “increased”.

For O=C1Nc2cc(Br)ccc2/C1=C1/Nc2ccccc2/C1=N\O [BIO, (2′Z,3′E)-6-Bromoindirubin-3′-oxime], which “hepatic gene marker expression (FIG. 4B)” value [4] is on record?
The value was “higher”.

And the “Beta catenin in the cytoplasm and nuclei” value (Beta-catenin; BIO treated hES-HEP cultures, Day 21)?
Its value is “commonly observed”.

And the beta-catenin localisation (Beta-catenin; upon BIO treatment)?
Its beta-catenin localisation is “translocate from cell membrane to nucleus”.

And the “culture purity (morphology)” value ([5]; 3.5 μM BIO from day 3 (Example 11) vs untreated (Example 9))?
Its value is “more purified hESC-HEP compared to untreated cultures”.

What about the “culture homogeneity (morphology)” value ([5]; 5 μM BIO from day 3, surviving cells passaged day 4) of the same compound?
The value was “highly purified and homogenous culture of hESC-HEP”.

What about the “final purity of the cell populations” value ([5]; BIO addition at a later stage (day 10+)) of the same compound?
The value was “greater final purity”.

What about the “culture homogeneity (morphology)” value ([5]; low concentration (1 μM) of BIO, day 3-9) of the same compound?
The value was “highly heterogeneous cultures where hardly any hepatocyte-like cells were observed”.

And the cell death (MEF cultured hESC; 3.5 μM BIO from day 3, compared to 5 μM BIO)?
The cell death was “less dramatic cell death”.

And the cell death (MEF cultured hESC; 5 μM BIO day 3)?
The cell death was “dramatic cell death”.

And the “increase of UGT1A1 activity” value ([6]; +/− BIO 1.4 μM days 14-25)?
The value was “much greater than for others”.

What about the “activity of most of the UGTs” value ([6]; +/− BIO 1.4 μM days 14-25, three differentiation protocols) of the same compound?
Its value is “greater activity”.

And the “Cyp1A activity over time” value [7]?
Its value is “increased during time”.

And the “metabolic activity (FIG. 4A)” value [8]?
The value was “higher”.

What about the CYP1A activity (hiPS cells [9]) of the same compound?
Its CYP1A activity is “Increased”.

And the CYP3A activity (hiPS cells [9])?
Its CYP3A activity is “Increased”.

And the “activity of CYP1A” value (hiPS cells [9])?
Its value is “increased”.

And the “activity of CYP3A” value (hiPS cells [9])?
The value was “increased”.

What about the “metabolic activity (FIG. 5A)” value (hiPS cells [9]) of the same compound?
The value was “greater metabolic activity”.

What about the “expression of CYP1A1, CYP1A2, CYP3A4 and CYP7A1” value (hiPS cells [10]) of the same compound?
The value was “clear increase”.

And the “levels of CYP2C9” value (hiPS cells [10])?
The value was “maintained high”.

And the “mRNA of CD44, AFP, CK18, CK19, CYP1A1, CYP1A2, CYP3A4, CYP2C9, CYP7A1, Albumin, OATP2, A1AT, MRP2” value (hiPS cells [10])?
Its value is “Increased”.

What about the “mRNA of CYP1A1, CYP1A2, CYP3A4, CYP2C9, CYP7A1, MRP2, CD44, AFP, CK18, CK19” value (hiPS cells [10]) of the same compound?
The value was “Increased”.

What about the AAT (hiPS cells [10]; hiPS+/−BIO, n=4) of the same compound?
The AAT was “maintained on a high level”.

And the AFP levels (hiPS cells [10]; hiPS+/−BIO, n=4)?
The AFP levels was “decreased”.

And the Albumin (hiPS cells [10]; hiPS+/−BIO, n=4)?
The Albumin was “maintained at a level high compared to known protocols”.

And the “transporters such as MRP2, Oct-1, GSTA1, BCEP and OATP2” value (hiPS cells [10]; hiPS+/−BIO, n=4, vs HepG2)?
Its value is “maintained at levels significantly higher than HepG2”.

What about the “maturity of hiPS derived cells (Q-PCR, immunocytochemistry, Activity Assay)” value (hiPS cells [10]; media supplemented with BIO vs absence of GSK-3 inhibitor) of the same compound?
The value was “became more mature”.

What about the “activity of CYP1A” value (hES cells [11]) of the same compound?
Its value is “increased”.

What about the “activity of CYP2C” value (hES cells [11]) of the same compound?
The value was “increased”.

And the “activity of CYP3A” value (hES cells [11])?
The value was “increased”.

And the “expression of CYP1A1, CYP1A2, CYP3A4, CYP2C9 and CYP7A1” value (hES cells [12])?
Its value is “clear increase”.

What about the AAT (hES cells [12]; hPS+/−BIO, n=4) of the same compound?
Its AAT is “increase”.

What about the “transporters such as MRP2, Oct-1, GSTA1, BCEP and OATP2” value (hES cells [12]; hPS+/−BIO, n=4) of the same compound?
The value was “maintained at levels showing a maturation”.

What about the A1AT expression ([13]; BIO supplemented at day 3) of the same compound?
The A1AT expression was “strong increase at day 28”.

What about the ALB expression ([13]; BIO supplemented at day 3) of the same compound?
Its ALB expression is “decreased at day 26”.

What about the “GSTA1 and UGT2B7 expression” value ([13]; BIO supplemented at day 3) of the same compound?
Its value is “increased expression”.

What about the “MRP2 and BSEP expression” value ([13]; BIO supplemented at day 3) of the same compound?
Its value is “increased expression”.

And the TAT expression levels ([13]; with BIO vs without BIO, all days)?
Its TAT expression levels is “higher expression levels”.
